# Source: ChEMBL document CHEMBL3217594, “Structureactivity relationships of methyl-lysine reader antagonists” (Medchemcomm, 2012)
# Active and inactive are the calls of the source. No cut-off for these calls is given here.
# Tests used:
# [1] = biological target: T1, Chromobox protein homolog 7 (Homo sapiens, UniProt O95931); assay: Antagonist activity at Flag-tagged CBX7 (unknown origin) assessed as inhibition of CBX7/biotinylated H3K9Me3 peptide interaction after 30 mins by AlphaScreen assay
# T1 sequence (O95931 whole entry): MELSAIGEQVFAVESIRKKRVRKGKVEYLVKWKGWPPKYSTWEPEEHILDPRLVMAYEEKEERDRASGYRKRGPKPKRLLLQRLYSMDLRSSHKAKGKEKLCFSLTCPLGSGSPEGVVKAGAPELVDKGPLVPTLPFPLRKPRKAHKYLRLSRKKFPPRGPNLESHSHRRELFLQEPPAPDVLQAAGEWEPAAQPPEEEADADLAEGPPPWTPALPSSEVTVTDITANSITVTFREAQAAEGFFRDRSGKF
# [2] = biological target: T2, Chromobox protein homolog 7 (Homo sapiens) (UniProt O95931); assay: Antagonist activity at Flag-tagged CBX7 (unknown origin) assessed as inhibition of CBX7/biotinylated H3K9Me3 peptide interaction at 30 uM after 30 mins by AlphaScreen assay
# T2 sequence (whole entry): T1 sequence (O95931 whole entry)
# [3] = biological target: T3, Lethal(3)malignant brain tumor-like protein 3 (Homo sapiens, UniProt Q96JM7); assay: Antagonist activity at His-tagged L3MBTL3 (unknown origin) assessed as inhibition of L3MBTL3/biotinylated H4K20Me2 peptide interaction after 30 mins by AlphaScreen assay
# T3 sequence (Q96JM7 whole entry): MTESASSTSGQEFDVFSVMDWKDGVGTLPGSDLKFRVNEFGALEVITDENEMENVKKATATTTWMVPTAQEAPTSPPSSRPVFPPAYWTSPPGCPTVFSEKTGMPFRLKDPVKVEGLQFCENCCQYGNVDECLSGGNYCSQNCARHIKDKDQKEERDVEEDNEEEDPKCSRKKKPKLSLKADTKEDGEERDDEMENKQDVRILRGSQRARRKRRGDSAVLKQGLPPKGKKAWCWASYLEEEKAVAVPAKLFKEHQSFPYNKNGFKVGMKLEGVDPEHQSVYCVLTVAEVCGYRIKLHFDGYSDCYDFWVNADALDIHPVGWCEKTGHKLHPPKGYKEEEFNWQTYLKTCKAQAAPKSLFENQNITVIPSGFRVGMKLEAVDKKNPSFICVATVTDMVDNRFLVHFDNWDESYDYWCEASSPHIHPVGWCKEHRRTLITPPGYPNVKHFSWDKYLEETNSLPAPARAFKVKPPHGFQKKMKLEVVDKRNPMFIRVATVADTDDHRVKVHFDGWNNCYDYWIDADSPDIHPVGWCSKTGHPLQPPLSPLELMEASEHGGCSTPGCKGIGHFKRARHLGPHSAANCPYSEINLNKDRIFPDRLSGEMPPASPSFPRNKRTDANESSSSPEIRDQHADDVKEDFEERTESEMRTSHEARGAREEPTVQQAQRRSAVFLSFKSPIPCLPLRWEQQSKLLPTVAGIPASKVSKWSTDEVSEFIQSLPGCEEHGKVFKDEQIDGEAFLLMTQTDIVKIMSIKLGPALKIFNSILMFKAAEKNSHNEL
# [4] = biological target: T4, Lethal(3)malignant brain tumor-like protein 4 (Homo sapiens, UniProt Q8NA19); assay: Antagonist activity at L3MBTL4 (unknown origin) assessed as inhibition of L3MBTL4/biotinylated H2AK36Me1 peptide interaction after 30 mins by AlphaScreen assay
# T4 sequence (Q8NA19 whole entry): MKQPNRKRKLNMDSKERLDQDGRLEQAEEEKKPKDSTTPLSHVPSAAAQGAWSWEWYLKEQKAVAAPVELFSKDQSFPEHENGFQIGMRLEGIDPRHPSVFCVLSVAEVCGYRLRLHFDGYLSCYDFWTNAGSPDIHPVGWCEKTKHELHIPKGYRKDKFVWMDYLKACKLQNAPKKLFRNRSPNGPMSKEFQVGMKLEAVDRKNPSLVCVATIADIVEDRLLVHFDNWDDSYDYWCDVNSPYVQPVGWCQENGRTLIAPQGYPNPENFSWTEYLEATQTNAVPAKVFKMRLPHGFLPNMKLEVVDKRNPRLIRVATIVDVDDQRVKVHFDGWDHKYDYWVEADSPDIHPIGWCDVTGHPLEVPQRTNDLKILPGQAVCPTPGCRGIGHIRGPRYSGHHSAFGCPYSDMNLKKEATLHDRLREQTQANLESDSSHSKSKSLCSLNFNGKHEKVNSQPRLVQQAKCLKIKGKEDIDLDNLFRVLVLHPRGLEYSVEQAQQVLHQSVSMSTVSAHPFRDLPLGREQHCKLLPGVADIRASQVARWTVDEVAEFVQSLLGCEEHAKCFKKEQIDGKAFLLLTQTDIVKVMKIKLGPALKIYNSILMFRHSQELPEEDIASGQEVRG
# [5] = biological target: T5, Lethal(3)malignant brain tumor-like protein 4 (Homo sapiens) (UniProt Q8NA19); assay: Antagonist activity at L3MBTL4 (unknown origin) assessed as inhibition of L3MBTL4/biotinylated H2AK36Me1 peptide interaction at 30 uM after 30 mins by AlphaScreen assay
# T5 sequence (whole entry): T4 sequence (Q8NA19 whole entry)
# [6] = biological target: T6, MBT domain-containing protein 1 (Homo sapiens, UniProt Q05BQ5); assay: Antagonist activity at MBTD1 (unknown origin) assessed as inhibition of MBTD1/biotinylated H4K20Me1 peptide interaction after 30 mins by AlphaScreen assay
# [7] = biological target: T6, MBT domain-containing protein 1; assay: Antagonist activity at MBTD1 (unknown origin) assessed as inhibition of MBTD1/biotinylated H4K20Me1 peptide interaction at 30 uM after 30 mins by AlphaScreen assay
# [8] = biological target: T7, Scm-like with four MBT domains protein 1 (Homo sapiens, UniProt Q9UHJ3); assay: Antagonist activity at SFMBT1 (unknown origin) assessed as inhibition of SFMBT1/biotinylated H3K9Me1 peptide interaction after 30 mins by AlphaScreen assay
# T7 sequence (Q9UHJ3 whole entry): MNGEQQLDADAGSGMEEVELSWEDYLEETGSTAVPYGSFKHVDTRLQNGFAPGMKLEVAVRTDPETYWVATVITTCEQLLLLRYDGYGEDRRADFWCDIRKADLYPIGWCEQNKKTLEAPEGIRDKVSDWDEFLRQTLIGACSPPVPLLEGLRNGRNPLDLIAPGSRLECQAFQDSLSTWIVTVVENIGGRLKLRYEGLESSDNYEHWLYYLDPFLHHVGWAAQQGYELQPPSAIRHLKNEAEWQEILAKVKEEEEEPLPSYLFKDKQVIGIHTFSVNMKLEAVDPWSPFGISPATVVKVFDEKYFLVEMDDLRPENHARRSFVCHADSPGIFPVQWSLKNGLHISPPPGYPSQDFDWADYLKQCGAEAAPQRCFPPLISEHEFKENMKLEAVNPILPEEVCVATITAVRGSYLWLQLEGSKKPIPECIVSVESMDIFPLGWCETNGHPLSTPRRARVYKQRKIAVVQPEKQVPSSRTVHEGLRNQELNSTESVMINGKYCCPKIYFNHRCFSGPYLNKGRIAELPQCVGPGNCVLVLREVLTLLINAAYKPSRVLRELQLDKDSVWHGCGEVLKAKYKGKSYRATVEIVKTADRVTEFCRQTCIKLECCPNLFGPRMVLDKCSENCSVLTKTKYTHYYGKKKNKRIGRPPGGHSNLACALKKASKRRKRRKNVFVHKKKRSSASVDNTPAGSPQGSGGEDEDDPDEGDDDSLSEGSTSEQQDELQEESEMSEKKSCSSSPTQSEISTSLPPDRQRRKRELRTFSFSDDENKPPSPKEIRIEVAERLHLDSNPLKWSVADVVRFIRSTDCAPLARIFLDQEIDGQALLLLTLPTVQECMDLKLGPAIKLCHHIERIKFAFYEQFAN
# [9] = biological target: T8, Scm-like with four MBT domains protein 1 (Homo sapiens) (UniProt Q9UHJ3); assay: Antagonist activity at SFMBT1 (unknown origin) assessed as inhibition of SFMBT1/biotinylated H3K9Me1 peptide interaction at 30 uM after 30 mins by AlphaScreen assay
# T8 sequence (whole entry): T7 sequence (Q9UHJ3 whole entry)
# T6 sequence (Q05BQ5 whole entry, the tested form may be a part): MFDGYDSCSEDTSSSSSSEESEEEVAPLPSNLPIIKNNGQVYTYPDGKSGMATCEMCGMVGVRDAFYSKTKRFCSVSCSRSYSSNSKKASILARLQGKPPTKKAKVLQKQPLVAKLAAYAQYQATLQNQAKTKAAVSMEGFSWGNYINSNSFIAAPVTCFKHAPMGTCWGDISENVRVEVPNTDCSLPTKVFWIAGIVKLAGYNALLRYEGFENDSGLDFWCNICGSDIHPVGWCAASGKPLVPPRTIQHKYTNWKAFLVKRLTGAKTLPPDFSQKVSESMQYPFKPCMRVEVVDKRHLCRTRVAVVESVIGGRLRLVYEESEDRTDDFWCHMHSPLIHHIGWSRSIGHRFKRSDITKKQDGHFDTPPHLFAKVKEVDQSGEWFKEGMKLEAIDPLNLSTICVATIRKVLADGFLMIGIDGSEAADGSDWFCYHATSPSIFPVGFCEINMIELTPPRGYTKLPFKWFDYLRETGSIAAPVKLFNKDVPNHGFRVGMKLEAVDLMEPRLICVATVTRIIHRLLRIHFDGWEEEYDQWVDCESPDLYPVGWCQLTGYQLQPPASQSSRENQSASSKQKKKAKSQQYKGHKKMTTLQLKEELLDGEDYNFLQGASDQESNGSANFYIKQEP
Structure (SMILES),IC50 [1] [µM],inhibition [2],IC50 [6] [µM],inhibition [7] [%],IC50 [8] [µM],inhibition [9],IC50 [3] [µM],IC50 [4] [µM],inhibition [5] [%]
O=C(c1cccc(Br)c1)N1CCC(N2CC=CC2)CC1,> 30,18%,> 30,24,> 30,inactive,8.7,> 30,28
c1ccc(C(c2ccccc2)N2CCC(N3CCCC3)CC2)cc1,> 30,inactive,> 30,36,> 30,inactive,2.4,> 30,17
O=C(c1ccc(Br)cc1)N1CCC(N2CCCC2)CC1,> 30,inactive,> 30,24,> 30,inactive,4.1,> 30,30
O=C(c1cccc(Br)c1)N1CC2CCC(C1)C2N1CCCC1 (stereo not given),> 30,inactive,> 30,31,> 30,inactive,3.6,> 30,16

# Second part, led by results:
IC50 [1] [µM],inhibition [2],IC50 [6] [µM],inhibition [7] [%],IC50 [8] [µM],inhibition [9],Structure (SMILES),IC50 [3] [µM],IC50 [4] [µM],inhibition [5] [%]
> 30,17%,> 30,31,> 30,inactive,O=C(c1ccccc1Br)N1CCC(N2CCCC2)CC1,6.8,> 30,29
> 30,inactive,> 30,22,> 30,inactive,O=C(c1ccccc1)N1CCC(N2CCCC2)CC1,6.2,> 30,40
> 30,inactive,> 30,21,> 30,inactive,CNC(=O)c1cccc(C(=O)N2CCC(N3CCCC3)CC2)c1,6.4,> 30,32
> 30,13%,15.2,–,> 30,inactive,O=C(c1cccc(Br)c1)N1CCCC(N2CCCC2)CC1 (stereo not given),6.7,> 30,28
> 30,9%,> 30,23,> 30,inactive,O=C(c1cncc(Br)c1)N1CCC(N2CCCC2)CC1,4.8,> 30,41
